The values that follow come from the NIST ThermoML archive (doi:10.1016/j.jct.2011.06.016).

Each structure is given as a SMILES string. Numbers after ± are expanded uncertainties.

The nature of this series: refractive index (Na D-line) (dimensionless). The note with it: 101.33 kPa, Liquid, Standard Abbe refractometry.

One may read the refractive index as a measure of how strongly the sample bends light. Regarding `O` [water], for the setting “298.15 K”, the refractive index came to 1.333 ± 0.001.

With `CCCCCCCCCCCCCCCC(=O)OCC` [ethyl hexadecanoate], the refractive index (298.15 K) amounted to 1.437 ± 0.001.

For the compound `CCO` [ethanol], where the note is “298.15 K”, the refractive index was determined as 1.3625 ± 0.0007.

For the compound `OCC(O)CO` [glycerol], for the setting “298.15 K”, the refractive index was found to be 1.471 ± 0.001.

As for `CCCCCCCCCCCCCCCCCC(=O)OCC` [ethyl octadecanoate], the refractive index (313.15 K) came to 1.436 ± 0.001.
